Assay results from ChEMBL document CHEMBL1201862, “PubChem BioAssay data set” (2004).
Active and inactive are the calls of the source.

Tests used:
Streptococcus = assay: Group A Streptococcus viability loss, dose response, counter-screen for streptokinase expression inhibitor project, luminescence, BacTiterGlo (AID 1915); assay type: functional, organism-based;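 also: potency for reduction of bacterial viability or growth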
Streptokinase A = biological target: T1, Streptokinase A (Streptococcus pyogenes serotype M1, UniProt P10520); assay: S. pyogenes streptokinase expression inhibitors, potency, dose response, plasminogen activation absorbance, OD405 (AID 1914); assay type: functional, Streptococcus pyogenes M1 GAS;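 also: secreted streptokinase activity via plasminogen activation per viability signal from cell pellet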
T1 sequence (P10520 whole entry): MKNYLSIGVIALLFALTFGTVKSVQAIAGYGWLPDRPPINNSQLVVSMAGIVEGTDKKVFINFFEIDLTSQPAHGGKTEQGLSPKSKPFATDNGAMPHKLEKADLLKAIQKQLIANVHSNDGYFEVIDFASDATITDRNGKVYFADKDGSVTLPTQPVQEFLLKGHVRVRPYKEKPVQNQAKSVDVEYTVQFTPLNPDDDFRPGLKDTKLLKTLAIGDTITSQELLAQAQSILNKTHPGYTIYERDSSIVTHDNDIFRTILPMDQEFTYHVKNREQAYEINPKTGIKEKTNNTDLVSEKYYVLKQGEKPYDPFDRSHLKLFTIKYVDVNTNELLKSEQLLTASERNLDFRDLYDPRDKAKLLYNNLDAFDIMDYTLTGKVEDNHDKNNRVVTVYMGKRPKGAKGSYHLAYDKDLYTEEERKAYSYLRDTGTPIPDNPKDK

[1] = tested on: Streptococcus sp. 'group A'; assay: growth inhibition of control SK(-) GAS strain, dose response, counter-screen for streptokinase expression inhibitor project, luminescence, kanamycin, BacTiterGlo, confirmation (AID 1900); assay type: functional, organism-based
DNA topoisomerase = DNA topoisomerase (Yersinia pestis, UniProt A0A2S9PM60); assay: Y. pestis Topo-I inhibitors, cleavage product readout, dose response, biochemical, cherry-pick (AID 588525)
Sequence of DNA topoisomerase (A0A2S9PM60 whole entry): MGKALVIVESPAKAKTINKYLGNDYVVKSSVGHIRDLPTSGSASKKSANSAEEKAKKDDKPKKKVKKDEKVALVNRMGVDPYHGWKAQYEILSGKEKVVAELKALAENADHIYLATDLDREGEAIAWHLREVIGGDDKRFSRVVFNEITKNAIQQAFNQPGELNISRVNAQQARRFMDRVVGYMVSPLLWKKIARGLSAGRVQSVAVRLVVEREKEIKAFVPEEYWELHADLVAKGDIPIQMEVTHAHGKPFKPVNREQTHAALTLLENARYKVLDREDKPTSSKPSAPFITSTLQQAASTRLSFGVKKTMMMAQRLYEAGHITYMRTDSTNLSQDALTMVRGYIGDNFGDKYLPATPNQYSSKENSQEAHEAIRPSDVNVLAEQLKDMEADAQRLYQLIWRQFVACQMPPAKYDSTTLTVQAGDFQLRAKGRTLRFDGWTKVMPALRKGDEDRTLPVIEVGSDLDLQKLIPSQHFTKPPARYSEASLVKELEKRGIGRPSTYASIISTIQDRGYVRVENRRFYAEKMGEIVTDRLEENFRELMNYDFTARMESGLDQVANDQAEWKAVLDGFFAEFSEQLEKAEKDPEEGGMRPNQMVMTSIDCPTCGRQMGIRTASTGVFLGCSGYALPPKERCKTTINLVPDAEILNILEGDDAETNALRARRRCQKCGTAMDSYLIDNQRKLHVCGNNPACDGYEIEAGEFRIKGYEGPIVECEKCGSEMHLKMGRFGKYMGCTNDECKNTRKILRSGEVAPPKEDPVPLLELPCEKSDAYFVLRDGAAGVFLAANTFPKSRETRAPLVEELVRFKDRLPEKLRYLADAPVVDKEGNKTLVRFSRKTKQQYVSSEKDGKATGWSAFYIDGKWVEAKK

NS3 = NS3 (Hepatitis C virus, UniProt A3EZJ3); assay: PubChem AID 2173; set-up: species or system Hepacivirus hominis
Sequence of NS3 (A3EZJ3 whole entry): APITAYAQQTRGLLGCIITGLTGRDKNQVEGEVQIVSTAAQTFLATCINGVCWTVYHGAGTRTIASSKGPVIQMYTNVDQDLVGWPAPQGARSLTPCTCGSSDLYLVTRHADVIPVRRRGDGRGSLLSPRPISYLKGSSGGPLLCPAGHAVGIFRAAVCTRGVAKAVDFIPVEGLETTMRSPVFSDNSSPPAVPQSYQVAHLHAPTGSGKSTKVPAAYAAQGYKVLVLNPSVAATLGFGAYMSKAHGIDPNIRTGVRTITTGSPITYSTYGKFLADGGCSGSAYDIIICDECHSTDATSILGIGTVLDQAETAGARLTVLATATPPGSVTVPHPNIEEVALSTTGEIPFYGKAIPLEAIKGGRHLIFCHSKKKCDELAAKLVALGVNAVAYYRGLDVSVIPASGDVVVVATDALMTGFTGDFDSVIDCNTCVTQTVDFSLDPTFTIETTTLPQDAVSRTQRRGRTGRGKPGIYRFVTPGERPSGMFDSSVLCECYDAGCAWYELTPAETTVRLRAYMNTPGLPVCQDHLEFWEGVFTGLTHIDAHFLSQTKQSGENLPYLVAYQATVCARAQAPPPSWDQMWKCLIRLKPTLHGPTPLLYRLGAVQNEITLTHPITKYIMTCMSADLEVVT

[2] = biological target: Induced myeloid leukemia cell differentiation protein Mcl-1 (Homo sapiens, UniProt Q07820); assay type: functional
Sequence of Induced myeloid leukemia cell differentiation protein Mcl-1 (Q07820 whole entry): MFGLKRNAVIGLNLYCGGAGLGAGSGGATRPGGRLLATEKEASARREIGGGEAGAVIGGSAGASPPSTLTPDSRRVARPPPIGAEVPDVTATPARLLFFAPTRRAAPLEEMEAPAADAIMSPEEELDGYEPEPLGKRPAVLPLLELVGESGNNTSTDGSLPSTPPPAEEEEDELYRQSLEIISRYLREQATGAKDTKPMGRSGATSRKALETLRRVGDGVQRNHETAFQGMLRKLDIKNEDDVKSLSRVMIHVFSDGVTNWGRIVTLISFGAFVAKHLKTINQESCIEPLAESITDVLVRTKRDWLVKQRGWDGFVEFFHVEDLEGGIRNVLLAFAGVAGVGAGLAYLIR

[3] = Luminescence Cell-Based Dose Confirmation HTS to Identify Activators of 5'UTR Stem-Loop Driven Alpha-Synuclein mRNA Translation in H4 Neuroglioblastoma Cells. [Related pubchem assays: 1829 (Project Summary), 1814 (Primary HTS)]; assay type: functional
Aminopeptidase N = biological target: T2, Aminopeptidase N (Plasmodium falciparum FcB1/Columbia, UniProt O96935); assay: P. falciparum M1AAP inhibitors, biochemical, fluorogenic H-Leu-NHMec substrate, 1536-well (AID 1445); set-up: species or system Plasmodium falciparum 3D7, 3D7
T2 sequence (O96935 whole entry): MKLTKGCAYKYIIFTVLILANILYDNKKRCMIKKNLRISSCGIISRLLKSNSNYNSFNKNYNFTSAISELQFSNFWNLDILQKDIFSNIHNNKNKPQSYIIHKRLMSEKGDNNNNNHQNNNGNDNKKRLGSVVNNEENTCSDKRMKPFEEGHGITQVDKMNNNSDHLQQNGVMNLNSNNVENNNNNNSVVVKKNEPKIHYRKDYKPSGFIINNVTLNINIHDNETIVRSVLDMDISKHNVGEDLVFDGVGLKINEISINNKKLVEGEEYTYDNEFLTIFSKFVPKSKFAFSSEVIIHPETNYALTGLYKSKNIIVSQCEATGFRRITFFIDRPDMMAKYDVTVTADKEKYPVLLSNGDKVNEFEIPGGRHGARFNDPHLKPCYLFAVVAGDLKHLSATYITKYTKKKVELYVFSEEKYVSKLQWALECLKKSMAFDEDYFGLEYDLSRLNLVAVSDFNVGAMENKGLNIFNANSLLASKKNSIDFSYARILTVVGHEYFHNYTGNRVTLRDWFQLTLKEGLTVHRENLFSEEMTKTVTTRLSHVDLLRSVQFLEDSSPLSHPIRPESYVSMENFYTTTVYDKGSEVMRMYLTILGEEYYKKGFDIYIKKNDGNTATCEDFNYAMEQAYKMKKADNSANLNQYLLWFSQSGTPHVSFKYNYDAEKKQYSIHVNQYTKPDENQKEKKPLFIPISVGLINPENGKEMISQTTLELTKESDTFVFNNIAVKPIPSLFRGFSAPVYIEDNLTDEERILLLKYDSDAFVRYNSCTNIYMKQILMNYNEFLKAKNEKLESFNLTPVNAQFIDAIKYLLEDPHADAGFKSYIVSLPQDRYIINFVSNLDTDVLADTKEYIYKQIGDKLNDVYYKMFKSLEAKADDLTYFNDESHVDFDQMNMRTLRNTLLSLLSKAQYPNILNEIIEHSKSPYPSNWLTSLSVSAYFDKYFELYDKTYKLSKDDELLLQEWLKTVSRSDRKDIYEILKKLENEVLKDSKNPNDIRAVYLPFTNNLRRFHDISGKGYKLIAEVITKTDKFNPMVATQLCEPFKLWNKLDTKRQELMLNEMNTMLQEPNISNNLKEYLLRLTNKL

[4] = biological target: T3, Polyadenylate-binding protein 1 (Homo sapiens, UniProt P11940); assay: PABP1 MLLE–PAM2 binding inhibitor potency, dose response, biochemical, fluorescence polarization, FITC-PAM2 peptide (AID 602259); assay type: functional; settings: read-out: IC50_Mean
T3 sequence (P11940 whole entry): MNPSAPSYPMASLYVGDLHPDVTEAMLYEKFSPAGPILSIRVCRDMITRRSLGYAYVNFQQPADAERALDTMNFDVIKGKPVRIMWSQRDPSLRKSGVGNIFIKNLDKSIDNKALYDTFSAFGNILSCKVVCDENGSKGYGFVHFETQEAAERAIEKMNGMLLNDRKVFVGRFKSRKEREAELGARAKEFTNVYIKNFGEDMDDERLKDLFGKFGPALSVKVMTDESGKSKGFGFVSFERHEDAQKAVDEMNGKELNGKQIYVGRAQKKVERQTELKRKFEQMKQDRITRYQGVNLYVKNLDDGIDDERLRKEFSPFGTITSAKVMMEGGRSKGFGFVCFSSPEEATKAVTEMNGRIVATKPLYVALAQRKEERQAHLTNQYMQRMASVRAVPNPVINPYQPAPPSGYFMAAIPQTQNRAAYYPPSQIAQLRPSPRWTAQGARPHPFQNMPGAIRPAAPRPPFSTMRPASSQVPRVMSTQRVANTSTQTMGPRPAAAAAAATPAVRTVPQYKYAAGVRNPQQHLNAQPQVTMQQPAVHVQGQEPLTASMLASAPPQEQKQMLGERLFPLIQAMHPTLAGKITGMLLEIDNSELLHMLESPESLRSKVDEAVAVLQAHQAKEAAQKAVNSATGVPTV

[5] = biological target: T3, Polyadenylate-binding protein 1; assay: PABP1 MLLE–PAM2 interaction inhibitors, dose response, miRNA deadenylation inhibitor project, biochemical, fluorescence polarization, Cy5-PAM2 peptide, secondary (AID 602260); assay type: functional; settings: read-out: IC50_Mean
Vero = Vero cell cytotoxicity, cytotoxicity control for flavivirus capping enzyme inhibitors (AID 588742); assay type: functional; settings: Chlorocebus sabaeus
[6] = biological target: T4, Replicative DNA helicase DnaB (Mycobacterium tuberculosis, UniProt P9WMR3); assay: DnaB intein splicing inhibitors, dose response, biochemical, cell-free fluorescence (AID 449749); assay type: functional
T4 sequence (P9WMR3 whole entry): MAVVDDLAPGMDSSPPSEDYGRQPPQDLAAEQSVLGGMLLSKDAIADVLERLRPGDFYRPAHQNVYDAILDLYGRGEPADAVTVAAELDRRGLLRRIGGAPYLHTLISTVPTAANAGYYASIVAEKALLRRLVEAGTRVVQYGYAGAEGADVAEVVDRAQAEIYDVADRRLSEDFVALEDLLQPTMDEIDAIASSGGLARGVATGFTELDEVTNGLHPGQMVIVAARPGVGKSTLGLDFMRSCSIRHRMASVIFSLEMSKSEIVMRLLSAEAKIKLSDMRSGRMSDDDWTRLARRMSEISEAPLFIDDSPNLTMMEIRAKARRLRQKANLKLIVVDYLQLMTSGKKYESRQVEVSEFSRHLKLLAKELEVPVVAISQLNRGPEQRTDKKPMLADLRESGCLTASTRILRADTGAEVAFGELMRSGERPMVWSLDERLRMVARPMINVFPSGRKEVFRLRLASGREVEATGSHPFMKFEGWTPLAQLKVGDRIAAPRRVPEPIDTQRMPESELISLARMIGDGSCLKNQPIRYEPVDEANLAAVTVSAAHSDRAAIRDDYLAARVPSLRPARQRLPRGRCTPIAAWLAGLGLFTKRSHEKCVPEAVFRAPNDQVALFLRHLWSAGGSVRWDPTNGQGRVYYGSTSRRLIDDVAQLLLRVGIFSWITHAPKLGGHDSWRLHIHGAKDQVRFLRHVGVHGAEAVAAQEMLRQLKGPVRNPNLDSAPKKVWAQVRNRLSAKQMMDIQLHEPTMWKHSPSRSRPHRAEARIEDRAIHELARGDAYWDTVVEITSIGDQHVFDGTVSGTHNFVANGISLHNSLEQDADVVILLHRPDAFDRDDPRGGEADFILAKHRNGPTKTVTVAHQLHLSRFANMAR

Genome polyprotein = Genome polyprotein (dengue virus type 2, UniProt P29990); assay: Dengue-2 NS5 methyltransferase inhibitors, primary screen, biochemical, confirmation dose response (AID 588689); assay type: functional
Sequence of Genome polyprotein (P29990 2492-3391 limits assumed): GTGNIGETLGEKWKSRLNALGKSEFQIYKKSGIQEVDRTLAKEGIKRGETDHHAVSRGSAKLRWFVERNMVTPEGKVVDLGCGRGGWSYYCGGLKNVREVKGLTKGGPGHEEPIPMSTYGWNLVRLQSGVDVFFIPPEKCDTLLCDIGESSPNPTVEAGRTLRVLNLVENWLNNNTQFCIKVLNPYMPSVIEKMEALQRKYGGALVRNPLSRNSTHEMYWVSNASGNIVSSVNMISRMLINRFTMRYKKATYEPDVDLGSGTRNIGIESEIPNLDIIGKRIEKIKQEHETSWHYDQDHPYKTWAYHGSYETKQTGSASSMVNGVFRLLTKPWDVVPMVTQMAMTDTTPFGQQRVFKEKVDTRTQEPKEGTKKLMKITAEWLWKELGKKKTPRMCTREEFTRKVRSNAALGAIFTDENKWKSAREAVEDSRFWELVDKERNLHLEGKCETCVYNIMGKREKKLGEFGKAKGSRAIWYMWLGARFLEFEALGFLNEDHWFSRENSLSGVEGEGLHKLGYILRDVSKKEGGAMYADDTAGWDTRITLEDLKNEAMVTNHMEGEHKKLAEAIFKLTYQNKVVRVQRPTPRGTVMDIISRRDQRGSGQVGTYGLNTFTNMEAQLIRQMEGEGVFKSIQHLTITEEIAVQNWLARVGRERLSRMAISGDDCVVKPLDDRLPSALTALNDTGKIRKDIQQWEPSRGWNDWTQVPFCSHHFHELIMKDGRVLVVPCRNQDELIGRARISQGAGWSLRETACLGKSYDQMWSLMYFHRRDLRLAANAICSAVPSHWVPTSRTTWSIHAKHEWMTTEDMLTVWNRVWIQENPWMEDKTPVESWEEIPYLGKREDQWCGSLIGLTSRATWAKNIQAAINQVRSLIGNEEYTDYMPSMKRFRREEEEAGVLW

Protein RecA = biological target: T5, Protein RecA (Mycobacterium tuberculosis, UniProt P9WHJ3); assay: Fluorescence Cell-Free Homogeneous Dose Retest to Identify Inhibitors of RecA-Intein Splicing Activity. [Related pubchem assays (depositor defined):AID2097, AID2223, AID489010, AID492950]; assay type: functional
T5 sequence (P9WHJ3 whole entry): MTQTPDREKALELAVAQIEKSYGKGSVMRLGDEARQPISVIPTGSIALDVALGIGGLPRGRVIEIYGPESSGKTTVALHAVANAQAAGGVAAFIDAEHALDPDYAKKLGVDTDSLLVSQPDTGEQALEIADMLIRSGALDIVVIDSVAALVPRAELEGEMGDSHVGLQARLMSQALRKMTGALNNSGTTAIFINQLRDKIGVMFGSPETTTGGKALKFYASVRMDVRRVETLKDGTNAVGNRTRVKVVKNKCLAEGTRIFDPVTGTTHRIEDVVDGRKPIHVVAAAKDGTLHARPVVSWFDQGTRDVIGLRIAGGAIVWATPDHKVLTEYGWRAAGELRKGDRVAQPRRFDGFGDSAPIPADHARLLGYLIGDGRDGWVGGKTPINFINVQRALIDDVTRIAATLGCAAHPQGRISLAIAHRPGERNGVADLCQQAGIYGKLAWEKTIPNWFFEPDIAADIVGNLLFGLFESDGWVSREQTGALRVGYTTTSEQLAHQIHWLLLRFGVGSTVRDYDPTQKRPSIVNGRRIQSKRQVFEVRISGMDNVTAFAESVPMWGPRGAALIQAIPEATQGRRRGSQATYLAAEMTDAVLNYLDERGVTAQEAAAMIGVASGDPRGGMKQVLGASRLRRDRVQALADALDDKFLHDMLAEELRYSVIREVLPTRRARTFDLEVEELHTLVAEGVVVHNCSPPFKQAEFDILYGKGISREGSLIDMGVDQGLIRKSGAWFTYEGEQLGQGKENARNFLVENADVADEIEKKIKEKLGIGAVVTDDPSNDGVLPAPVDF

[7] = enhancers of respiration in Yfh1-depleted yeast, dose response, Friedreich's ataxia, plus single-dose screen (AID 1465); assay type: functional;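 also: yeast depleted of Yfh1p frataxin homolog grown on glycerol needing respiration; WST-1 tetrazolium dye reduction as measure of cellular dehydrogenase metabolic activity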
[8] = Luminescence Cell-Based Dose Response HTS to Identify Activators of Luciferase Translation or Activity in H4 […] Cells. [Related pubchem assays: 1829 (Project Summary), 1814 (Primary HTS)]; assay type: functional
[9] = biological target: Glucose-6-phosphate 1-dehydrogenase (Homo sapiens, UniProt P11413); assay: human G6PD enzyme inhibitors, dose response, selectivity assay for P. falciparum G6PD inhibitor project, biochemical, fluorescence (AID 504792); assay type: functional
Sequence of Glucose-6-phosphate 1-dehydrogenase (P11413 whole entry): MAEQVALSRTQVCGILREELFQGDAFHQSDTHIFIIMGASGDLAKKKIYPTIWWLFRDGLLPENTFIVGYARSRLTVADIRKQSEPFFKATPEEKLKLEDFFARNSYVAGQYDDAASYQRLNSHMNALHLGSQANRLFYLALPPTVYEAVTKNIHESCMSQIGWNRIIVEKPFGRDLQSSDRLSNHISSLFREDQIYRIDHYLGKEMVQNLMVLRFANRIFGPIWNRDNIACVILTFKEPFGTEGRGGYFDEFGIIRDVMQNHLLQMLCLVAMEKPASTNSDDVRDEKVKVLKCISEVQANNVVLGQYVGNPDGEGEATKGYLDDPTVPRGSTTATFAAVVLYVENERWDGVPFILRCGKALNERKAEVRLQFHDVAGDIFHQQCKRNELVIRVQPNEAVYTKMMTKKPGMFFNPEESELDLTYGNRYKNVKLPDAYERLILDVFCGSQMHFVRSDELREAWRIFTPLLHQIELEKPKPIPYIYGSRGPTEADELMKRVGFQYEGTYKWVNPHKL

H4 = assay: Luminescence Cell-Based Dose Response HTS to Identify Activators of 5'UTR Stem-Loop Driven Prion Protein mRNA Translation in H4 Neuroglioblastoma Cells. [Related pubchem assays: 1829 (Project Summary), 1814 (Primary HTS)]; assay type: functional; settings: Homo sapiens

Cc1ccc(C2C(C(=O)c3cc4ccccc4o3)=C(O)C(=O)N2c2cc(C)on2)cc1 (stereo not drawn)
EC50 (Streptococcus): 6.76 µM (active)
EC50 (Streptokinase A): 6.3 µM (active)
EC50 [1]: 2.28 µM (active)
AC50 (DNA topoisomerase): 8.86 µM (active)
IC50 (NS3): 2.49 µM (active)

Cc1ccc(S(=O)(=O)/N=C2/C=C(C3C(=O)CC(C)(C)CC3=O)C(=O)c3ccccc32)cc1
IC50 [2]: 2.13 µM (active)
EC50 [3]: 8.21 µM (active)
IC50 (Aminopeptidase N): 34.5 µM (active)
IC50 [4]: > 66 µM (inactive)
IC50 [5]: > 66 µM (inactive)
CC50 (Vero): > 40 µM (active)
AC50 [6]: 113 µM (active)
IC50 (Genome polyprotein): 10.1 µM (active)
EC50 (Protein RecA): 3.22 µM (active)
EC50 [7]: > 100 µM (active)
EC50 [8]: 42.1 µM (active)
IC50 [9]: > 80 µM (inactive)
EC50 (H4): 46.4 µM (active)
